PubChem BioAssay AID2060895 (Molecular Pharmacology Branch, DTP, NCI, 2025)

Tested on: PDC 899932-113-R3-J6 complex spheroid viability
Test: Anticancer human tumor 899932-113-R3-J6-PDC patient-derived melanoma cell line growth inhibition [RAS]
Settings: for IC50: curve of first compound; for viability, T/C: stronger effect = lower value
Description: RAS pathway inhibitors in Combinations in Complex Spheroids
A high-throughput screen of multi-cell type tumor spheroids was designed to identify active combinations of RAS pathway inhibitors and targeted small molecules. Complex spheroids include a stromal component modeled by human endothelial cells (HUVEC) and fibroblasts modeled by human mesenchymal stem cells (MSCs). The concentration ranges selected for each drug and investigational agent were based upon clinically achievable concentrations if the clinical Cmax of the agent was known.
Compounds. The drugs and investigational agents: abemaciclib (NSC768073), cobimetinib (NSC768068), divarasib (GDC6063, NSC841802), docetaxel (NSC628503), GDC-1971 (RLY-1971, NSC841576), gemcitabine (NSC613327), inavolisib (NSC800729), ipatasertib (NSC767898), KB-0742 (NSC834161), MRTX-1133 (NSC836407), osimertinib (NSC779217), RMC-4630 (NSC839698), RMC-6236 (NSC851965), RMC-6291 (NSC852671), Ro-3306 (NSC812927), sapanisertib (NSC764658), SN-38 (NSC673596), staurosporine (NSC755774), SY5609 (NSC837396), and tovorafenib (DAY101, NSC766906), were obtained from the National Cancer Institute (NCI) Developmental Therapeutics Program Chemical Repository. The FDA-approved anticancer drug set is available from the NCI Developmental Therapeutics Program. […] The stock solutions were prepared in dimethyl sulfoxide (DMSO, Sigma-Aldrich, St. Louis, MO, cat. D2650) at 800-fold the tested concentration and stored at -70 degrees C prior to their use. All drugs and investigational agents were tested over a range starting from a high concentration at or near the clinical Cmax and decreasing in half-log increments. If the clinical Cmax for an agent had not been determined, the highest concentration tested was 10 microM.
Cell Culture. All cells were maintained in an incubator at 37 degrees C and 5% CO2 with 95% humidity. The PDC lines were cultured according to standard operating procedures established by the NCI PDMR. All PDCs were thawed and cultured in Matrigel-coated flasks prepared with a working solution of 1X Ham's F-12 nutrient mix, without supplementation (Invitrogen, Waltham, MA, cat. 11765054), 100 U/mL penicillin-streptomycin (Invitrogen, cat. 15140122), and 2.5% Matrigel (Corning Inc., Corning, NY, cat. 354248) for the first three passages. The 362531-283-R-J2-PDC and 782815-120-R-J1-PDC lines were cultured in 6C/Colon 1B media, which includes advanced DMEM/F-12 (Thermo Fisher Scientific, cat. 12634028), 10 mM HEPES (Thermo Fisher Scientific, cat. 15630080), 1X GlutaMAX supplement (Thermo Fisher Scientific, cat. 35050061), 0.1 mg/mL primocin (InvivoGen, San Diego, CA, cat. ant-pm-2), 10% defined fetal bovine serum, heat inactivated (HyClone Laboratories Inc., Logan, UT, cat. SH30070.03HI), 50% L-WRN conditioned media (ATCC, cat. CRL-3276), 1.25 mM N-Acetyl-L-cysteine (Sigma-Aldrich, cat. A9165), 10 mM nicotinamide (Sigma-Aldrich, cat. N0636), 1X B-27 supplement (Thermo Fisher Scientific, cat. 17504044), 1X N-2 supplement (Thermo Fisher Scientific, cat. 17502048), 50 ng/mL human EGF (Thermo Fisher Scientific, cat. PHG0311), and 10 microM Y-27632 dihydrochloride (Tocris Bioscience, cat. 1254). The K12877-001-R-J1-PDC line was cultured in 6I media, which includes all 6C/Colon 1B media plus 10 ng/mL human FGF-10 (PeproTech, cat. 100-26), 1 ng/mL human FGF-2 (PeproTech, cat. 100-18B), 1 µM prostaglandin E2 (Tocris Bioscience, cat. 2296), […] hydrocortisone (Sigma-Aldrich, cat. H4001), and […] bovine insulin (Sigma-Aldrich, cat. I6634). The K86415-001-R-J1-PDC line was cultured in 6D media, which includes all 6C/Colon 1B media components minus the L-WRN conditioned media. The 485176-168-R4-J1-PDC was cultured in PANC media, which includes all 6C/Colon 1B media plus 100 ng/mL human FGF-10 (PeproTech, cat. 100-26), 500 nM SB-431542 (Selleckchem, cat. S1067), and 10 nM gastrin (Tocris Bioscience, cat. 3006). […]

[1] = second compound 0.0316 µM, first compound 0.0316 µM
[2] = second compound 0.0316 µM, first compound 0.1 µM
[3] = second compound 0.0316 µM, first compound 0.316 µM
[4] = second compound 0.0316 µM, first compound 1 µM
[5] = second compound 0.1 µM, first compound 0.0316 µM
[6] = second compound 0.1 µM, first compound 0.1 µM
[7] = second compound 0.1 µM, first compound 0.316 µM
[8] = second compound 0.1 µM, first compound 1 µM
[9] = second compound 0.316 µM, first compound 0.0316 µM
[10] = second compound 0.316 µM, first compound 0.1 µM
[11] = second compound 0.316 µM, first compound 0.316 µM
[12] = second compound 0.316 µM, first compound 1 µM
[13] = second compound 1 µM, first compound 0.0316 µM
[14] = second compound 1 µM, first compound 0.1 µM
[15] = second compound 1 µM, first compound 0.316 µM
[16] = second compound 1 µM, first compound 1 µM
[17] = second compound 3.16 µM, first compound 0.0316 µM
[18] = second compound 3.16 µM, first compound 0.1 µM
[19] = second compound 3.16 µM, first compound 0.316 µM
[20] = second compound 3.16 µM, first compound 1 µM
[21] = second compound 10 µM, first compound 0.0316 µM
[22] = second compound 10 µM, first compound 0.1 µM
[23] = second compound 10 µM, first compound 0.316 µM
[24] = second compound 10 µM, first compound 1 µM
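Throughout, for viability, T/C: spheroids exposed to agents for seven days before readout; 100% = DMSO vehicle control wells.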

CCN1CCN(Cc2ccc(Nc3ncc(F)c(-c4cc(F)c5nc(C)n(C(C)C)c5c4)n3)nc2)CC1 + C#Cc1c(F)ccc2cc(O)cc(-c3ncc4c(N5CC6CCC(C5)N6)nc(OCC56CCCN5CC(F)C6)nc4c3F)c12
IC50 (second compound 0.0316 µM): 0.502 µM
IC50 (second compound 0.1 µM): 0.526 µM
IC50 (second compound 0.316 µM): 0.524 µM
IC50 (second compound 1 µM): 0.49 µM
IC50 (second compound 3.16 µM): 0.526 µM
IC50 (second compound 10 µM): 0.31 µM
viability, T/C (second compound 0.0316 µM, first compound 0.00316 µM): 105%
viability, T/C (second compound 0.0316 µM, first compound 0.01 µM): 97.1%
viability, T/C [1]: 98.9%
viability, T/C [2]: 83.4%
viability, T/C [3]: 69.8%
viability, T/C [4]: 23.9%
viability, T/C (second compound 0.1 µM, first compound 0.00316 µM): 109%
viability, T/C (second compound 0.1 µM, first compound 0.01 µM): 102%
viability, T/C [5]: 92.9%
viability, T/C [6]: 87%
viability, T/C [7]: 68.9%
viability, T/C [8]: 28.3%
viability, T/C (second compound 0.316 µM, first compound 0.00316 µM): 116%
viability, T/C (second compound 0.316 µM, first compound 0.01 µM): 92.8%
viability, T/C [9]: 94%
viability, T/C [10]: 92.7%
viability, T/C [11]: 69%
viability, T/C [12]: 26.5%
viability, T/C (second compound 1 µM, first compound 0.00316 µM): 115%
viability, T/C (second compound 1 µM, first compound 0.01 µM): 112%
viability, T/C [13]: 98.7%
viability, T/C [14]: 81.6%
viability, T/C [15]: 67.1%
viability, T/C [16]: 27.8%
viability, T/C (second compound 3.16 µM, first compound 0.00316 µM): 126%
viability, T/C (second compound 3.16 µM, first compound 0.01 µM): 112%
viability, T/C [17]: 100%
viability, T/C [18]: 86.2%
viability, T/C [19]: 71.4%
viability, T/C [20]: 28.5%
viability, T/C (second compound 10 µM, first compound 0.00316 µM): 125%
viability, T/C (second compound 10 µM, first compound 0.01 µM): 113%
viability, T/C [21]: 100%
viability, T/C [22]: 84.4%
viability, T/C [23]: 48.4%
viability, T/C [24]: 3.09%

C[C@@H](NC(=O)c1ncnc(N)c1Cl)c1ncc(C(=O)Nc2cc(C(F)(F)F)c(Cl)cn2)s1 + C#Cc1c(F)ccc2cc(O)cc(-c3ncc4c(N5CC6CCC(C5)N6)nc(OCC56CCCN5CC(F)C6)nc4c3F)c12
IC50 (second compound 0.0316 µM): 6.59 µM
IC50 (second compound 0.1 µM): 6.77 µM
IC50 (second compound 0.316 µM): 6.87 µM
IC50 (second compound 1 µM): 7.39 µM
IC50 (second compound 3.16 µM): 7.73 µM
IC50 (second compound 10 µM): 6.2 µM
viability, T/C [1]: 120%
viability, T/C [2]: 151%
viability, T/C [3]: 149%
viability, T/C [4]: 150%
viability, T/C (second compound 0.0316 µM, first compound 3.16 µM): 99.2%
viability, T/C (second compound 0.0316 µM, first compound 10 µM): 22.1%
viability, T/C [5]: 130%
viability, T/C [6]: 133%
viability, T/C [7]: 153%
viability, T/C [8]: 151%
viability, T/C (second compound 0.1 µM, first compound 3.16 µM): 94.5%
viability, T/C (second compound 0.1 µM, first compound 10 µM): 27.2%
viability, T/C [9]: 132%
viability, T/C [10]: 123%
viability, T/C [11]: 145%
viability, T/C [12]: 140%
viability, T/C (second compound 0.316 µM, first compound 3.16 µM): 94.2%
viability, T/C (second compound 0.316 µM, first compound 10 µM): 28.7%
viability, T/C [13]: 138%
viability, T/C [14]: 139%
viability, T/C [15]: 158%
viability, T/C [16]: 151%
viability, T/C (second compound 1 µM, first compound 3.16 µM): 99.2%
viability, T/C (second compound 1 µM, first compound 10 µM): 32.5%
viability, T/C [17]: 124%
viability, T/C [18]: 150%
viability, T/C [19]: 155%
viability, T/C [20]: 172%
viability, T/C (second compound 3.16 µM, first compound 3.16 µM): 117%
viability, T/C (second compound 3.16 µM, first compound 10 µM): 30.7%
viability, T/C [21]: 136%
viability, T/C [22]: 145%
viability, T/C [23]: 154%
viability, T/C [24]: 166%
viability, T/C (second compound 10 µM, first compound 3.16 µM): 91.6%
viability, T/C (second compound 10 µM, first compound 10 µM): 20.5%
